# System: 282377-053-R-J1-PDC complex spheroids, viability
# Assay: Anticancer human tumor 282377-053-R-J1-PDC patient-derived colon adenocarcinoma cell line growth inhibition [GQUAD]
# Details: for IC50: curve of first compound; for viability, T/C: stronger effect = lower value
# Method in brief: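 Multi-cell-type spheroids of tumor cells with HUVEC and mesenchymal stem cells, treated with drug combinations. Concentrations descend in half-log steps from near clinical Cmax, or from 10 microM where Cmax is unknown; viability read-out.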
# [1] = second compound 0.0316 µM, first compound 0.0316 µM
# [2] = second compound 0.0316 µM, first compound 0.1 µM
# [3] = second compound 0.0316 µM, first compound 0.316 µM
# [4] = second compound 0.0316 µM, first compound 1 µM
# [5] = second compound 0.0316 µM, first compound 3.16 µM
# [6] = second compound 0.0316 µM, first compound 10 µM
# [7] = second compound 0.1 µM, first compound 0.0316 µM
# [8] = second compound 0.1 µM, first compound 0.1 µM
# [9] = second compound 0.1 µM, first compound 0.316 µM
# [10] = second compound 0.1 µM, first compound 1 µM
# [11] = second compound 0.1 µM, first compound 3.16 µM
# [12] = second compound 0.1 µM, first compound 10 µM
# [13] = second compound 0.316 µM, first compound 0.0316 µM
# [14] = second compound 0.316 µM, first compound 0.1 µM
# [15] = second compound 0.316 µM, first compound 0.316 µM
# [16] = second compound 0.316 µM, first compound 1 µM
# [17] = second compound 0.316 µM, first compound 3.16 µM
# [18] = second compound 0.316 µM, first compound 10 µM
# [19] = second compound 1 µM, first compound 0.0316 µM
# [20] = second compound 1 µM, first compound 0.1 µM
# [21] = second compound 1 µM, first compound 0.316 µM
# [22] = second compound 1 µM, first compound 1 µM
# [23] = second compound 1 µM, first compound 3.16 µM
# [24] = second compound 1 µM, first compound 10 µM
# [25] = second compound 3.16 µM, first compound 0.0316 µM
# [26] = second compound 3.16 µM, first compound 0.1 µM
# [27] = second compound 3.16 µM, first compound 0.316 µM
# [28] = second compound 3.16 µM, first compound 1 µM
# [29] = second compound 3.16 µM, first compound 3.16 µM
# [30] = second compound 3.16 µM, first compound 10 µM
# [31] = second compound 10 µM, first compound 0.0316 µM
# [32] = second compound 10 µM, first compound 0.1 µM
# [33] = second compound 10 µM, first compound 0.316 µM
# [34] = second compound 10 µM, first compound 1 µM
# [35] = second compound 10 µM, first compound 3.16 µM
# [36] = second compound 10 µM, first compound 10 µM
# 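Note: spheroids exposed to compounds for 7 days before readout.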
# 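Throughout, for viability, T/C: percent of vehicle DMSO control viability with 100% = untreated-like growth.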
smiles,measurement,setting,value
CC(C)(O)C1CCC(Nc2ccc3ncc(-c4cccc(C(F)(F)F)c4)n3n2)CC1 (centres undefined) + Cc1[nH]c2ccc(F)cc2c1-c1nc2c3cccnc3c3ncccc3c2[nH]1,IC50,second compound 0.0316 µM,> 10000 nM
same,IC50,second compound 0.1 µM,> 10000 nM
same,IC50,second compound 0.316 µM,> 10000 nM
same,IC50,second compound 1 µM,> 10000 nM
same,IC50,second compound 3.16 µM,> 10000 nM
same,IC50,second compound 10 µM,2900 nM
same,"viability, T/C",[1],107%
same,"viability, T/C",[2],95.9%
same,"viability, T/C",[3],114%
same,"viability, T/C",[4],103%
same,"viability, T/C",[5],86.1%
same,"viability, T/C",[6],76.9%
same,"viability, T/C",[7],122%
same,"viability, T/C",[8],103%
same,"viability, T/C",[9],91.5%
same,"viability, T/C",[10],95.3%
same,"viability, T/C",[11],103%
same,"viability, T/C",[12],73.3%
same,"viability, T/C",[13],107%
same,"viability, T/C",[14],96.7%
same,"viability, T/C",[15],87.7%
same,"viability, T/C",[16],95.1%
same,"viability, T/C",[17],103%
same,"viability, T/C",[18],91.9%
same,"viability, T/C",[19],115%
same,"viability, T/C",[20],95.8%
same,"viability, T/C",[21],88.8%
same,"viability, T/C",[22],118%
same,"viability, T/C",[23],81.4%
same,"viability, T/C",[24],92.3%
same,"viability, T/C",[25],88.8%
same,"viability, T/C",[26],71.1%
same,"viability, T/C",[27],70.7%
same,"viability, T/C",[28],79.2%
same,"viability, T/C",[29],100%
same,"viability, T/C",[30],63.1%
same,"viability, T/C",[31],61.9%
same,"viability, T/C",[32],51.5%
same,"viability, T/C",[33],75.6%
same,"viability, T/C",[34],48.4%
same,"viability, T/C",[35],46.9%
same,"viability, T/C",[36],42.7%
O=C(NO)c1cnc(N2CCN(S(=O)(=O)c3ccc4ccccc4c3)CC2)nc1 + Cc1[nH]c2ccc(F)cc2c1-c1nc2c3cccnc3c3ncccc3c2[nH]1,IC50,second compound 0.0316 µM,56.3 nM
same,IC50,second compound 0.1 µM,55.3 nM
same,IC50,second compound 0.316 µM,45.2 nM
same,IC50,second compound 1 µM,40.2 nM
same,IC50,second compound 3.16 µM,< 31.6 nM
same,IC50,second compound 10 µM,< 31.6 nM
same,"viability, T/C",[1],78%
same,"viability, T/C",[2],17.6%
same,"viability, T/C",[3],18.6%
same,"viability, T/C",[4],19.8%
same,"viability, T/C",[5],24%
same,"viability, T/C",[6],30.6%
same,"viability, T/C",[7],78%
same,"viability, T/C",[8],18.6%
same,"viability, T/C",[9],16.4%
same,"viability, T/C",[10],18.6%
same,"viability, T/C",[11],21.2%
same,"viability, T/C",[12],26.9%
same,"viability, T/C",[13],63.6%
same,"viability, T/C",[14],18.4%
same,"viability, T/C",[15],17.1%
same,"viability, T/C",[16],18.1%
same,"viability, T/C",[17],21.4%
same,"viability, T/C",[18],22.9%
same,"viability, T/C",[19],58.7%
same,"viability, T/C",[20],15.1%
same,"viability, T/C",[21],19.3%
same,"viability, T/C",[22],13.7%
same,"viability, T/C",[23],16.1%
same,"viability, T/C",[24],21.8%
same,"viability, T/C",[25],30.5%
same,"viability, T/C",[26],7.85%
same,"viability, T/C",[27],7.14%
same,"viability, T/C",[28],6.02%
same,"viability, T/C",[29],6.61%
same,"viability, T/C",[30],7.81%
same,"viability, T/C",[31],19.7%
same,"viability, T/C",[32],7.83%
same,"viability, T/C",[33],5.03%
same,"viability, T/C",[34],6.51%
same,"viability, T/C",[35],4.71%
same,"viability, T/C",[36],7.67%

# Source: PubChem BioAssay AID2060501 (Molecular Pharmacology Branch, DTP, NCI, 2025)
